Data on 20 molecules can be found in PMC12093506, “Synthesis, characterization, and in vitro and in silico α-glucosidase inhibitory evolution of novel N′-(2-cyclopentyl-2-phenylacetyl)cinnamohydrazide derivatives” (RSC Advances, 2025).

The structures appear in SMILES notation. Read-outs that look alike come from different tables or passages of the source.

As usually defined, the IC50 is the concentration that gives 50% inhibition. As usually defined, the Ki is a measure of affinity in units of concentration, obtained from inhibition or displacement.

Assay [1] concerns the target T1, α-glucosidase (maltase) enzyme from Yeast (Saccharomyces cerevisiae, UniProt P53341).
T1 construct: purchased Sisco Research Laboratories Pvt; Ltd
The assay can be described thus: biochemical. The class given is biochemical. The method, then: The test compounds were evaluated for their α-glucosidase inhibitory activity following the methodology outlined by Pistia et al.[62] and Bhatia et al.[63] […] The compounds at varied concentrations ranging from 50 to 200 μg mL^−1 were combined with 50 μL of α-glucosidase (maltase) enzyme solution (1 U mL^−1) from Yeast (Sisco Research Laboratories Pvt. Ltd). The mixer was placed at a temperature of 37 °C for duration of 15 minutes, after the addition of 0.1 M phosphate buffer (pH 6.8). Afterward, 25 μl of substrate buffer was introduced into the system to initiate the reaction, and the incubation was prolonged at a temperature of 37 °C for a length of 15 minutes. Finally, the reaction was stopped by adding 50 μl of a 0.2 M sodium carbonate solution, thereby terminating the processes. The measurement was determined at a wavelength of 450 nm. […] The measurement of enzyme activity was carried out as follows.
The formula for calculating the percentage is (ODblank − ODsample) divided by ODblank, multiplied by 100.
A unit of enzyme may be accurately defined as the amount of α-glucosidase enzyme required to generate one micromole of p-nitrophenol (product) from p-nitrophenyl-α-D-glucopyranoside (substrate) for a time of one minute. The IC50, representing the concentration required to inhibit 50% of the enzyme activity, was determined by fitting a regression equation to a graph that plotted concentration (varying from 50–200 μg mL^−1) on the X-axis and percentage of inhibition on the Y-axis for various fractions and extracts.

The next assay concerns the target α-glucosidase. Particulars: cited from earlier work.
[2] abbreviates: yeast α-glucosidase (maltase) 1 U mL^−1, phosphate buffer pH 6.8, 37 °C.
Where [3] appears, read: yeast α-glucosidase (maltase) 1 U mL^−1, phosphate buffer pH 6.8, 37 °C, read-out: IC50 (α-glucosidase inhibition).
Setting [4] is: compounds with phenyl rings, Fig. 1.
[5] abbreviates: hydrazine-type compounds, Fig. 1.

T1 sequence (P53341 whole entry): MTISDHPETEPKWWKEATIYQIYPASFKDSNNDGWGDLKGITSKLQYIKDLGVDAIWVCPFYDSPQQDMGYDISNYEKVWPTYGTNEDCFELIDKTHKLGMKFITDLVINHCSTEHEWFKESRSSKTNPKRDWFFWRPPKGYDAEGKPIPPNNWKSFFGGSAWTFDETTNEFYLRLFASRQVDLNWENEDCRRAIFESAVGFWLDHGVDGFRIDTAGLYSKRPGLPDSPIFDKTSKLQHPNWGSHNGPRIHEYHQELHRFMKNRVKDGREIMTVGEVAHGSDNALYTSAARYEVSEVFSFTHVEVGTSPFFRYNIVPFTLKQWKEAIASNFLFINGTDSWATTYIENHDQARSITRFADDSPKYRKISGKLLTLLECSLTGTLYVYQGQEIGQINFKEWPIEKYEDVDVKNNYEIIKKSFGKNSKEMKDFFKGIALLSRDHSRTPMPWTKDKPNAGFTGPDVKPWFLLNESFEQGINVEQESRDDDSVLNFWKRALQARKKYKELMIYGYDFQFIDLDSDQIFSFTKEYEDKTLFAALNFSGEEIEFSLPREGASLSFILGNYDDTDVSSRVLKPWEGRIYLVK

In the case of `O=C(C=Cc1ccc(Br)cc1)NNC(=O)C(c1ccccc1)C1CCCC1` (centres unmarked) [Compound 6d, 3-(4-Bromophenyl)-N′-(2-cyclopentyl-2-phenylacetyl)acrylohydrazide], half-maximal inhibition in assay [1] (IC50) required 64.8 nM.

`Cc1ccc(C=CC(=O)NNC(=O)C(c2ccccc2)C2CCCC2)cc1` (centres unmarked) [Compound 6e, N′-(2-Cyclopentyl-2-phenylacetyl)-3-(p-tolyl)acrylohydrazide] gave an IC50 in assay [1] of 233 nM. Besides, the “IC50 (α-glucosidase inhibition)” value in assay [1] (setting [2]) is reported as “moderate inhibition”.

Turning to `O=C(C=Cc1ccc(Br)cc1)NNC(=O)C(c1cc(F)c(F)cc1F)C1CCCC1` (centres unmarked) [Compound 7c, 3-(4-Bromophenyl)-N′-(2-cyclopentyl-2-(2,4,5-trifluorophenyl)acetyl)acrylohydrazide], in assay [1] (setting [3]), the IC50 is 49.3 nM. In the case of `COc1ccc(C=CC(=O)NNC(=O)C(c2cc(F)c(F)cc2F)C2CCCC2)cc1` (centres unmarked) [Compound 7e, N′-(2-Cyclopentyl-2-(2,4,5-trifluorophenyl)acetyl)-3-(4-methoxyphenyl)acrylohydrazide], the “IC50 (α-glucosidase inhibition)” value in assay [1] (setting [2]) is “no effect on inhibition”.

Consider `O=C(/C=C/c1ccc(F)cc1)NNC(=O)C(c1ccccc1)C1CCCC1` (centres unmarked) [Compound 6f, 3-(4-Fluoro)-N′-(2-cyclopentyl-2-phenylacetyl)acrylohydrazide], for which the “IC50 (α-glucosidase inhibition)” value in assay [1] (setting [2]) is “no inhibition effect”. Take `O=[N+]([O-])c1ccc2cc(-c3ncc(-c4ccccc4F)o3)oc2c1` [VI]: the IC50 at α-glucosidase (setting [4]) is 13400 nM. On to `CC(C(=O)NN)c1ccc(-c2ccccc2)c(F)c1` (centres unmarked) [III], for which the IC50 at α-glucosidase (setting [5]) was 25200 nM.

As to `CC(C(=O)NNC(=O)c1cccc(Cl)c1)c1ccc(-c2ccccc2)c(F)c1` (centres unmarked) [IV], at α-glucosidase (setting [5]), the IC50 was 10400 nM. As to `Cc1ccc(C=CC(=O)NNC(=O)C(c2cc(F)c(F)cc2F)C2CCCC2)cc1` (centres unmarked) [Compound 7b, N′-(2-Cyclopentyl-2-(2,4,5-trifluorophenyl)acetyl)-3-(p-tolyl)acrylohydrazide], the IC50 in assay [1] (setting [3]) was found to be 14.5 nM. As to `O=C(C=Cc1cccc([N+](=O)[O-])c1)NNC(=O)C(c1cc(F)c(F)cc1F)C1CCCC1` (centres unmarked) [Compound 7g, 3-(3-Nitrophenyl)-N′-(2-cyclopentyl-2-(2,4,5-trifluorophenyl)acetyl)acrylohydrazide], it took 54.8 nM to reach half-maximal inhibition in assay [1] (IC50). On the same count and under the same terms, as for `O=C(C=Cc1cccc(Br)c1)NNC(=O)C(c1cc(F)c(F)cc1F)C1CCCC1` (centres unmarked) [Compound 7f, 3-(3-Bromophenyl)-N′-(2-cyclopentyl-2-(2,4,5-trifluorophenyl)acetyl)acrylohydrazide], the figure is 33.2 nM.

For `O=C(C=Cc1ccccc1Br)NNC(=O)C(c1ccccc1)C1CCCC1` (centres unmarked) [Compound 6b, 3-(2-Bromophenyl)-N′-(2-cyclopentyl-2-phenylacetyl)acrylohydrazide], the IC50 in assay [1] stood at 104 nM. Besides, in assay [1] (setting [2]), the “IC50 (α-glucosidase inhibition)” value is listed as “moderate inhibition”. For `O=C(C=Cc1ccccc1)NNC(=O)C(c1ccccc1)C1CCCC1` (centres unmarked) [Compound 6a, N′-(2-Cyclopentyl-2-phenylacetyl)cinnamohydrazide], the IC50 in assay [1] was found to be 79.8 nM. Take `C=CCc1ccc(OC(=O)/C=C/c2ccc(O)cc2)c(-c2cc(CC=C)ccc2OC(=O)/C=C/c2ccc(O)cc2)c1` [I]: the Ki on α-glucosidase (Fig. 1) is 2480 nM. Further, the IC50 on α-glucosidase (cinnamic acid magnolol derivative) is 5110 nM. Regarding `O=C(C=Cc1cccc(Br)c1)NNC(=O)C(c1ccccc1)C1CCCC1` (centres unmarked) [Compound 6c, 3-(3-Bromophenyl)-N′-(2-cyclopentyl-2-phenylacetyl)acrylohydrazide], in assay [1], it took 46.8 nM to reach half-maximal inhibition (IC50). Still for that read-out and setting: as for `O=C(C=Cc1ccccc1)NNC(=O)C(c1cc(F)c(F)cc1F)C1CCCC1` (centres unmarked) [Compound 7a, N′-(2-cyclopentyl-2-(2,4,5-trifluorophenyl)acetyl)cinnamohydrazide], the figure is 85.2 nM. Consider `O=C(/C=C/c1ccc(O)cc1)N1CC(O)C(O)C1` (centres unmarked) [II], for which the IC50 at α-glucosidase (deacetylsarmentamide derivative) was 546000 nM.

With `O=C(C=Cc1cccc(Cl)c1)NNC(=O)C(c1cc(F)c(F)cc1F)C1CCCC1` (centres unmarked) [Compound 7d, 3-(3-Chlorophenyl)-N′-(2-cyclopentyl-2-(2,4,5-trifluorophenyl)acetyl)acrylohydrazide], the IC50 in assay [1] (setting [3]) was 18.9 nM.

`O=C(C=Cc1cccc([N+](=O)[O-])c1)NNC(=O)C(c1ccccc1)C1CCCC1` (centres unmarked) [Compound 6g, 3-(3-Nitrophenyl)-N′-(2-cyclopentyl-2-phenylacetyl)acrylohydrazide] gave an IC50 in assay [1] of 28.5 nM. Turning to `Fc1ccccc1/C=N/c1ccc2cn[nH]c2c1` [V], at α-glucosidase (setting [4]), the IC50 was 8510 nM.
